Measurements as given in ChEMBL document CHEMBL5620412, “Discovery of benzofuran-2-carboxylic acid derivatives as lymphoid tyrosine phosphatase (LYP) inhibitors for cancer immunotherapy” (Eur J Med Chem, 2023).
Activity calls are given as the source filed them. The calls are words filed in the database; no cut-off is given here.

Key:
[1] = (§1) Selectivity ratio of IC50 for inhibition of N-terminal His-tagged PTPN12 catalytic domain (1 to 294 residues) (unknown origin) expressed in Escherichia coli BL21 (DE3) cells to IC50 for inhibition of N-terminal His-tagged LYP catalytic domain (1 to 294 residues) (unknown origin) expressed in Escherichia coli BL21 (DE3) cells using pNPP as substrate
[2] = as §1, with “PTPN5” for “PTPN12”
[3] = as §1, with “SSH2” for “PTPN12”
[4] = target: T1, Protein phosphatase Slingshot homolog 2 (Homo sapiens, UniProt Q76I76); assay: Inhibition of N-terminal His-tagged SSH2 catalytic domain (1 to 294 residues) (unknown origin) expressed in Escherichia coli BL21 (DE3) cells
T1 sequence (Q76I76 whole entry): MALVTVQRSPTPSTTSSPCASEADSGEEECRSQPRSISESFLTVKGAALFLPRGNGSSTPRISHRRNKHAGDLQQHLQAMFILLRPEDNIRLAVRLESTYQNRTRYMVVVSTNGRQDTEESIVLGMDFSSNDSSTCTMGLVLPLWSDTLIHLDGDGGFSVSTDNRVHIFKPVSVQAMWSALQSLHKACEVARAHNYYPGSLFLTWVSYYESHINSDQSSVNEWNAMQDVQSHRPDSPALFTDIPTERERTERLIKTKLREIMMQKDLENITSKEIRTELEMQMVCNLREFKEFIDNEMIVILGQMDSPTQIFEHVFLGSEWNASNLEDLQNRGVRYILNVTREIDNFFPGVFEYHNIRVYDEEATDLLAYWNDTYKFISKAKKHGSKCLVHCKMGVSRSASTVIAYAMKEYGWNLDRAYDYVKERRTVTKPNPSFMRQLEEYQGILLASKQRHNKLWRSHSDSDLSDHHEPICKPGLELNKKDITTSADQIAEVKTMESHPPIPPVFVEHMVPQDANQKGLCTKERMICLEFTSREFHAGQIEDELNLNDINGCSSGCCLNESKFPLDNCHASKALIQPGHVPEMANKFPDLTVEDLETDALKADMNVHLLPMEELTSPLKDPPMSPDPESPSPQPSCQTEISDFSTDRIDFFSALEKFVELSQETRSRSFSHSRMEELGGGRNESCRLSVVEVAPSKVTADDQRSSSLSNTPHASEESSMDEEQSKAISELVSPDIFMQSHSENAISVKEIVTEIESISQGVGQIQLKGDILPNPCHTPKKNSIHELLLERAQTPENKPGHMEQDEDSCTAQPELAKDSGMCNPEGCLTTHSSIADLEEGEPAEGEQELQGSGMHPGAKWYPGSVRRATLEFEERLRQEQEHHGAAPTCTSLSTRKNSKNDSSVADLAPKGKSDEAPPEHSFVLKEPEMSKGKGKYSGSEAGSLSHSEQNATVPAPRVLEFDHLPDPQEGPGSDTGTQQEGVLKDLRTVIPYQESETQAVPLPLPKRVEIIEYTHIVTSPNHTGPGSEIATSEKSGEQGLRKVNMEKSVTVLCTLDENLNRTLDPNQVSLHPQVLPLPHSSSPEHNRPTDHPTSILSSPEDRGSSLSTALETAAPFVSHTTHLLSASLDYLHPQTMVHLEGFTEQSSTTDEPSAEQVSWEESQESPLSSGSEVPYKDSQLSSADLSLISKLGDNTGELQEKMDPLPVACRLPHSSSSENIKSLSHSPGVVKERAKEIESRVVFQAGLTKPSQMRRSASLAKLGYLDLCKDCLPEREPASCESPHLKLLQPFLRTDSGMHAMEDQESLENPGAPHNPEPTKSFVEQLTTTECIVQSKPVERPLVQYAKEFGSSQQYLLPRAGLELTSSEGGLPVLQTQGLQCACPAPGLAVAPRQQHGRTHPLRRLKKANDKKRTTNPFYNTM

Jurkat T [5] = assay: Activation of TCR signaling in human Jurkat T cells assessed as increase in ERK phosphorylation preincubated with compound for 1 hrs followed by anti-CD3 stimulation and measured after 45 mins by immunoblot analysis; type: cell-based; conditions: filed as activator, time 105.0 min
Jurkat T [6] = assay: Activation of TCR signaling in […] transfected human Jurkat T cells assessed as increase in LCK phosphorylation preincubated with compound for 1 hrs followed by anti-CD3 stimulation and measured after 45 mins by immunoblot analysis; type: cell-based; conditions: time 105.0 min
Jurkat T [7] = assay: Activation of TCR signaling in […] transfected human Jurkat T cells assessed as increase in ERK phosphorylation preincubated with compound for 1 hrs followed by anti-CD3 stimulation and measured after 45 mins by immunoblot analysis; type: cell-based; conditions: time 105.0 min
MC-38 [8] = assay: Antitumor activity against mouse MC-38 cells implanted in syngenic C57BL/6J mouse model at 50 mg/kg, IG administered twice daily for 14 days by H&E staining based analysis; type: functional, organism-based; conditions: time 14.0 day
MC-38 [9] = assay: Antiproliferative activity against mouse MC-38 cells assessed as reduction in cell viability upto 4 uM incubated for 72 hrs by CCK8 assay; type: functional, cell-based
MC-38 [10] = assay: Antitumor immunity against mouse MC-38 cells implanted in syngenic C57BL/6J mouse model assessed as increase in CD45+ cell proportion in tumor at 50 mg/kg, IG administered twice daily for 14 days by flow cytometric analysis; type: functional, organism-based; conditions: time 14.0 day
MC-38 [11] = assay: Antitumor immunity against mouse MC-38 cells implanted in syngenic C57BL/6J mouse model assessed as increase in CD8+ T cell proportion in tumor at 50 mg/kg, IG administered twice daily for 14 days by flow cytometric analysis; type: functional, organism-based; conditions: time 14.0 day
MC-38 [12] = assay: Antitumor immunity against mouse MC-38 cells implanted in syngenic C57BL/6J mouse model assessed as increase in tumor infiltration of CD8+ T cells at 50 mg/kg, IG administered twice daily for 14 days by DAPI staining based immunofluorescence analysis; type: functional, organism-based; conditions: time 14.0 day
MC-38 [13] = assay: Antitumor immunity against mouse MC-38 cells implanted in syngenic C57BL/6J mouse model assessed as increase in TNF-alpha expression at 50 mg/kg, IG administered twice daily for 14 days; type: functional, organism-based; conditions: time 14.0 day
MC-38 [14] = assay: Antitumor immunity against mouse MC-38 cells implanted in syngenic C57BL/6J mouse model assessed as inhibition of M2 polarization of tumor associated macrophage in spleen at 50 mg/kg, IG administered twice daily for 14 days by flow cytometric analysis; type: functional, organism-based; conditions: time 14.0 day
MC-38 [15] = assay: Antitumor immunity against mouse MC-38 cells implanted in syngenic C57BL/6J mouse model assessed as upregulation of PD-L1 expression in dendritic cells at 50 mg/kg, IG administered twice daily for 14 days by flow cytometric analysis; type: functional, organism-based; conditions: time 14.0 day
[16] = Upregulation of PD-L1 expression in mouse MC-38 cells at 20 uM incubated for 48 hrs by flow cytometric analysis (reference value: 23.3%); type: functional
MC-38 [17] = assay: Antitumor activity against mouse MC-38 cells implanted in syngenic C57BL/6J mouse model assessed as tumor growth inhibition at 50 mg/kg, IG administered twice daily for 14 days in presence of anti-PD-L1 antibody relative to control; type: functional; conditions: MC-38, po, 336 h, time 14 day, read-out: TGI

O=C(O)c1cc2cc(N(Cc3cccc(-c4ccccc4)c3)S(=O)(=O)c3ccc(-c4ccccc4)cc3)ccc2o1
Ratio IC50 [1]: 1.8
Ratio IC50 [2]: > 5.5
Ratio IC50 [3]: > 5.5
IC50 [4]: > 20 µM

COc1ccc(-c2ccc(CN(c3ccc4oc(C(=O)O)cc4c3)S(=O)(=O)c3ccc(Cl)c([N+](=O)[O-])c3)cc2)cc1
IC50 [4]: > 20 µM
Activity (Jurkat T [5]): Active
Activity (Jurkat T [6]): inactive
Activity (Jurkat T [7]): inactive
Activity (MC-38 [8]): Active
Activity (MC-38 [9]): inactive
Activity (MC-38 [10]): Active
Activity (MC-38 [11]): Active
Activity (MC-38 [12]): Active
Activity (MC-38 [13]): Active
Activity (MC-38 [14]): Active
Activity (MC-38 [15]): Active
Activity [16]: 43.6%
inhibition in vivo at 50 mg/kg (MC-38 [17]): 94.3%

CC(=O)C1=C(C)N=c2s/c(=C/c3ccc(OCc4ccc(C(=O)O)cc4)cc3)c(=O)n2C1c1ccc(N(C)C)cc1 (stereo unspecified)
Ratio IC50 [1]: 1.2
IC50 [4]: > 20 µM

O=C(O)c1cc2cc(N(Cc3ccc(-c4ccccc4)cc3)S(=O)(=O)c3ccc(-c4cccc(O)c4)cc3)ccc2o1
Ratio IC50 [1]: 1.8
Ratio IC50 [2]: > 5.5
Ratio IC50 [3]: > 5.5
IC50 [4]: > 20 µM

O=C(O)c1cc2cc(N(Cc3ccc(OCc4ccccc4)cc3)S(=O)(=O)c3ccc(-c4ccccc4)cc3)ccc2o1
Ratio IC50 [1]: > 3.5
Ratio IC50 [2]: > 3.5
Ratio IC50 [3]: > 5.5
IC50 [4]: > 20 µM
Activity (Jurkat T [5]): Active
Activity (Jurkat T [6]): inactive
Activity (Jurkat T [7]): inactive
Activity (MC-38 [8]): Active
Activity (MC-38 [9]): inactive
Activity (MC-38 [10]): Active
Activity (MC-38 [11]): Active
Activity (MC-38 [12]): Active
Activity (MC-38 [13]): Active
Activity (MC-38 [14]): Active
Activity (MC-38 [15]): Active
Activity [16]: 59.2%
inhibition in vivo at 50 mg/kg (MC-38 [17]): 94.3%
